These results are taken from patent US20250388535A1, “SULFONATED AND SULFATED ARYL-ALKYL COMPOUNDS USEFUL AS SURFACTANTS” (SPECIALTY OPERATIONS FRANCE, priority 2022, published 2025).

Structures are written as SMILES.

This data set in a line: Surface activity: critical micelle concentration and surface tension by force tensiometer. In kind it is physicochemical. Particulars: for CMC / Surface tension (at CMC): aqueous solution, room temperature; for Cross-sectional area: area occupied by the surfactant molecule at the surface; for Cross-sectional area / Surface excess: from Gibbs adsorption equation. As for the experimental part: Critical micelle concentrations (CMC) and surface tensions (ST) were measured for aqueous solutions of the surfactants of the present invention at room temperature using a force tensiometer (Sigma 700/701). Plots of surface tension against surfactant concentration were drawn allowing to determine CMC and surface tension at the CMC. Using the Gibbs adsorption equation it is possible to determine the surface excess as well as the area occupied by the surfactant molecule at the surface (as a reference see for example “Industrial Utilization of Surfactants: principles and practice”, M. J. Rosen and M. Dahanayake, 2000, ISBN 1893997111) which are important parameters to characterize a surfactant.

Take `CCCCCCCCCCCCCCC(C(=O)c1ccccc1)S(=O)(=O)[O-].[Na+]` (centres unmarked) [PAKS-C16]: the CMC stood at 0.23 mM, the “Surface tension (at CMC)” value stood at 44 mN/m, the Cross-sectional area is 0.64 nm^2 and the Surface excess is 0.0026 mmol/m^2.

On to `CCCCCCCCCCCCCCC(C(O)c1ccccc1)S(=O)(=O)[O-].[Na+]` (centres unmarked) [PAS-C16], for which the CMC was 0.22 mM, the “Surface tension (at CMC)” value amounted to 36 mN/m, the Cross-sectional area was 0.53 nm^2 and the Surface excess amounted to 0.0031 mmol/m^2.
